{"source": "patent US20050119197A1", "about": "“Naadp analogues for modulating t-cell activity” (priority 2000, published 2005)", "type_in_all_cases": "cell-based, human", "key": {"[1]": {"test_system": "Ins(1,4,5)P3-mediated Ca^2+-release", "assay": "Co-injection of NAADP^+ with Ins(1,4,5)P3 in Jurkat T-lymphocytes", "procedure": "(§1) Jurkat T-lymphocytes were loaded with Fura2/AM and ratiometric Ca^2+ imaging and parallel microinjection in the presence of 1 mM extracellular Ca^2+ was carried out as detailed under ‘Experimental Procedures’. […] Shown are: A/F, coinjection of NAADP^+ (50 nM) and […] (40 μM) (n=7); B/G, injection of NAADP^+ (50 nM) (n=10); C/H, coinjection of NAADP^+ (10 μM) and Ins(1,4,5)P3 (4 μM) (n=9); D/I, coinjection of NAADP^+ (50 nM) and Ins(1,4,5)P3 (4 μM) (n=3); E/J injection of Ins(1,4,5)P3 (4 μM; n=8)\n(§2) Batches of 10^7 Jurkat T cells were loaded with Fura2/AM as described (Guse et al., 1993). Fura2-loaded cells (10^7 cells/5 ml) were kept at room temperature until use. Glass coverslips were coated first with bovine serum albumin (5 mg/ml), and then with poly-L-lysine (0.1 mg/ml). Small chambers consisting of a rubber O-ring were sealed on the coverslips by silicon grease. Then 90 μl of extracellular buffer (140 mM NaCl, 5 mM KCl, 1 mM MgSO4, 1 mM CaCl2, 20 mM Hepes, 1 mM NaH2PO4, 5.5 mM glucose, pH 7.4) was added, followed by addition of 10 μl cell suspension. The coverslip was mounted on the stage of an inverted microscope (Axiovert 100, Zeiss, Oberkochingen, Germany). […] Ratio images (340/380) were constructed pixel by pixel, and changes in the ratio over time were measured by applying “regions-of-interest” on individual cells. […]"}, "[2]": {"test_system": "Jurkat T cells", "assay": "Ca^2+ signals in single intact Jurkat T-lymphocytes microinjected with compound (ratiometric Fura2 Ca^2+ imaging)", "conditions": "50 nM microinjected; nominal Ca^2+-free buffer; data not shown"}, "[3]": {"test_system": "OKT3-mediated Ca^2+-signaling (TCR/CD3 complex)", "assay": "Effect of microinjected NAADP^+ on OKT3-induced Ca^2+ signaling in single Jurkat T-lymphocytes", "procedure": "Jurkat T-lymphocytes were loaded with Fura2/AM and ratiometric Ca^2+ imaging and parallel microinjection in the presence of 1 mM extracellular Ca^2+ was carried out as detailed under ‘Experimental Procedures’. The cells were injected with different concentrations of NAADP^+ and then OKT3(10 μg/ml) was added. Injection of intracellular buffer (A), NAADP^+ (50 nM [B] and 10 μM [C]), and addition of OKT3 is indicated by arrows. Data are presented as a typical tracing from one individual cell, for each condition at least 3 experiments were carried out.\nas §2"}, "[4]": {"test_system": "Jurkat T cells", "assay": "Ca^2+ signals in single intact Jurkat T-lymphocytes microinjected with compound (ratiometric Fura2 Ca^2+ imaging)", "conditions": "for Ca^2+ signal after microinjection: 1 mM extracellular Ca^2+", "procedure": "Jurkat T-lymphocytes were loaded with Fura2/AM and Ca^2+ was measured as detailed under ‘Experimental Procedures’. Cells were injected as described in Experimental Procedures’ in the presence of 1 mM extacellular Ca^2+. Data are presented as overlays of single tracings of individual cells (left panel). […] As a control vehicle buffer without NAADP^+ was injected (A,B). The time point of microinjection is indicated by arrows.\nData from FIG. 1 are shown as mean values (n=5 to 17) from time point 80 sec (Ca^2+ peak; A) or 400 sec (Ca^2+ plateau; B).\nJurkat T-lymphocytes were loaded with Fura2/AM and ratiometric Ca^2+ imaging and parallel microinjection in the presence of 1 mM extracellular Ca^2+ was carried out as detailed under ‘Experimental Procedures’. Cells were injected with 50 nM NAADP^+ (A) or NADP^+ (B). Shown are the averages from 13 (A) and 5 (B) cells. The time point of microinjection is indicated by arrows.\nJurkat T lymphocytes (subclone JMP) were cultured in RPMI 1640 medium containing the following additions: Glutamax I, HEPES (20 mM, pH 7.4), NCS (7.5%), penicillin (100 U/ml) and streptomycin (50 μg/ml; all obtained from Life Technologies, Eggenstein, Germany). The cells were cultured at 37° C. in a humidified atmosphere in the presence of 5% CO2.\nBatches of 10^7 Jurkat T cells were loaded with Fura2/AM as described (Guse et al., 1993). Fura2-loaded cells (10^7 cells/5 ml) were kept at room temperature until use. Glass coverslips were coated first with bovine serum albumin (5 mg/ml), and then with poly-L-lysine (0.1 mg/ml). Small chambers consisting of a rubber O-ring were sealed on the coverslips by silicon grease. Then 90 μl of extracellular buffer (140 mM NaCl, 5 mM KCl, 1 mM MgSO4, 1 mM CaCl2, 20 mM Hepes, 1 mM NaH2PO4, 5.5 mM glucose, pH 7.4) was added, followed by addition of 10 μl cell suspension. The coverslip was mounted on the stage of an inverted microscope (Axiovert 100, Zeiss, Oberkochingen, Germany). Ratiometric Ca^2+-imaging was performed using a PhotoMed/Photon Technology (Wedel, Germany) digital imaging system built around the Axiovert 100 microscope. Illumination at 340 and 380 nm was carried out using a chopper/optical filter system. Images were captured by an intensified CCD camera (type C2400-77; spatial resolution: 525×487 pixel; Hamamatsu, Garching, Germany) and stored as individual 340 and 380 images on harddisk. Sampling rate was usually 5 sec for a pair of images (340 and 380 nm) using 100-fold magnification. Data analysis was performed off-line using PhotoMed/Photon Technology (Wedel, Germany) “Image master” analysis software. Ratio images (340/380) were constructed pixel by pixel, and changes in the ratio over time were measured by applying “regions-of-interest” on individual cells. Finally, ratio values were converted to Ca^2+-concentrations by external calibration.\nParallel Ca^2+ imaging and microin ection experiments require a firm attachment of the Jurkat T cells without preactivation of intracellular Ca^2+-signaling. This was achieved by the above mentioned coating procedure of the glass coverslips, as detailed earlier (Guse et al., 1997). The cells were kept in a small chamber (100 μl volume) in extracellular buffer (140 mM NaCl, 5 mM KCl, 1 mM MgSO4, 1 mM CaCl2, 20 mM Hepes, 1 mM NaH2PO4, 5.5 mM glucose, pH 7.4). Compounds to be microinjected were cleared from particles by either filtration through 0.45 μm filters, by centrifugation in an Eppendorf centrifuge at maximal speed for 10 min, or by both. Femtotips II (Eppendorf-Netheler-Hintz, Hamburg, Germany) were filled with 5 μl of reagent solution and inserted into the semi-automatic Eppendorf microinjection system (Transjector 5246, Micromanipulator 5171, Eppendorf-Netheler-Hintz, Hamburg, Germany). Injection parameters were: injection pressure: 80 hPa, compensatory pressure: 40 hPa, duration of injection: 0.5 sec, velocity of pipette: 700 μm/sec, pipette angle: 45°. Injections were performed into the upper part of the cell."}, "[5]": {"test_system": "cADPR-mediated Ca^2+-signal", "assay": "Co-injection of NAADP^+ with cADPR in Jurkat T-lymphocytes", "procedure": "(§3) Jurkat T-lymphocytes were loaded with Fura2/AM and ratiometric Ca^2+ imaging and parallel microinjection in the presence of 1 mM extracellular Ca^2+ was carried out as detailed under ‘Experimental Procedures’. […] Shown are (n=number of experiments): A/F, coinjection of NAADP (50 nM) and 8-OCH3-cADPR (100 μM) (n=7); B/G, injection of NAADP^+ (50 nM, n=10); C/H, coinjection of NAADP^+ (10 μM) and cADPR (10 μM) (n=7); D/I, coinjection of NAADP^+ (50 nM) and cADPR (10 μM) (n=5); E/J, injection of cADPR (10 μM, n=5).\nas §2"}, "[6]": {"test_system": "NAADP^+-mediated Ca^2+-signaling", "assay": "Co-injection of antagonists with NAADP^+: influence on NAADP^+-mediated Ca^2+-signaling in Jurkat T-lymphocytes", "procedure": "as §3, §1\nBatches of 10^7 Jurkat T cells were loaded with Fura2/AM as described (Guse et al., 1993). Fura2-loaded cells (10^7 cells/5 ml) were kept at room temperature until use. Glass coverslips were coated first with bovine serum albumin (5 mg/ml), and then with poly-L-lysine (0.1 mg/ml). Small chambers consisting of a rubber O-ring were sealed on the coverslips by silicon grease. Then 90 μl of extracellular buffer (140 mM NaCl, 5 mM KCl, 1 mM MgSO4, 1 mM CaCl2, 20 mM Hepes, 1 mM NaH2PO4, 5.5 mM glucose, pH 7.4) was added, followed by addition of 10 μl cell suspension. The coverslip was mounted on the stage of an inverted microscope (Axiovert 100, Zeiss, Oberkochingen, Germany). Ratiometric Ca^2+-imaging was performed using a PhotoMed/Photon Technology (Wedel, Germany) digital imaging system built around the Axiovert 100 microscope. Illumination at 340 and 380 nm was carried out using a chopper/optical filter system. […] Ratio images (340/380) were constructed pixel by pixel, and changes in the ratio over time were measured by applying “regions-of-interest” on individual cells. […]"}, "[7]": {"conditions": "Ins(1,4,6)PS3 40 μM co-injected with NAADP^+ 50 nM, vs NAADP^+ alone"}}}
{"molecule": "Nc1ncnc2c1ncn2[C@@H]1O[C@H](COP(=O)(O)OP(=O)(O)OCC2OC([n+]3cccc(C(=O)[O-])c3)C(O)C2O)[C@@H](O)[C@H]1OP(=O)(O)O", "note": "(stereo in doubt) [NAADP^+, nicotinic acid adenine dinucleotide phosphate]", "values": [{"measurement": "Ca^2+ signal on co-injection with Ins(1,4,5)P3", "setting": "[1]; NAADP^+ 50 nM co-injected with Ins(1,4,5)P3 4 μM", "result": "high initial Ca^2+ peak"}, {"measurement": "effect on Ins(1,4,5)P3-mediated Ca^2+-release", "setting": "[1]; NAADP^+ 10 μM (desensitizing) co-injected with Ins(1,4,5)P3 4 μM", "result": "almost complete inhibition"}, {"measurement": "high initial Ca^2+-spike in nominal Ca^2+-free extracellular buffer", "setting": "[2]", "result": "massively reduced"}, {"measurement": "effect on OKT3-mediated Ca^2+-signal", "setting": "[3]; NAADP^+ 50 nM microinjected prior to OKT3 10 μg/ml", "result": "did not significantly change"}, {"measurement": "effect on OKT3-mediated Ca^2+-signaling", "setting": "[3]; NAADP^+ 10 μM (desensitizing) microinjected before OKT3 10 μg/ml", "result": "dramatic inhibition"}, {"measurement": "longlasting Ca^2+-signal as measured at 400 s", "setting": "[4]; 100 nM, Ca^2+ plateau, FIG. 2B", "result": "only minor changes"}, {"measurement": "optimal concentration for the initial Ca^2+-peak (bell shaped dose response curve)", "setting": "[4]; Ca^2+ peak at 80 sec, FIG. 2A", "result": 100, "unit": "nM"}, {"measurement": "Ca^2+ signal after microinjection", "setting": "[4]; pipette concentration 0.1 nM", "result": "without effect in most of the cells"}, {"measurement": "Ca^2+ signal after microinjection", "setting": "[4]; pipette concentration 1 nM", "result": "without effect in most of the cells"}, {"measurement": "Ca^2+ signal after microinjection", "setting": "[4]; pipette concentration 10 nM", "result": "stimulated repetitive, longlasting Ca^2+ spiking of low amplitude"}, {"measurement": "Ca^2+ signal after microinjection", "setting": "[4]; pipette concentration 10 nM, listed as NAADP+", "result": "evokes repetitive and longlasting Ca^2+ oscillations of low amplitude"}, {"measurement": "Ca^2+ signal after microinjection", "setting": "[4]; pipette concentration 50 nM", "result": "an initial, rapidly occurring Ca^2+-peak with a high amplitude"}, {"measurement": "Ca^2+ signal after microinjection", "setting": "[4]; pipette concentration 50 nM, listed as NAADP+", "result": "a rapid and high initial Ca^2+ peak followed by trains of smaller Ca^2+ oscillations"}, {"measurement": "Ca^2+ signal after microinjection", "setting": "[4]; pipette concentration 100 nM", "result": "a rapid and high initial Ca^2+ peak followed by trains of smaller Ca^2+ oscillations"}, {"measurement": "Ca^2+ signal after microinjection", "setting": "[4]; pipette concentration 1 μM", "result": "gradually reduce the initial Ca^2+ peak"}, {"measurement": "Ca^2+ signal after microinjection", "setting": "[4]; pipette concentration 10 μM", "result": "gradually reduce the initial Ca^2+ peak"}, {"measurement": "Ca^2+ signal after microinjection", "setting": "[4]; pipette concentration 100 μM", "result": "no signal was detectable"}, {"measurement": "Ca^2+ signal after microinjection", "setting": "[4]; pipette concentration 100 μM, listed as NAADP+", "result": "complete self-inactivation of Ca^2+-signals"}, {"measurement": "effect on cADPR-mediated Ca^2+ signals", "setting": "[5]; NAADP^+ 50 nM co-injected with cADPR 10 μM", "result": "did not significantly change"}, {"measurement": "effect on cADPR-mediated Ca^2+-signal", "setting": "[5]; NAADP^+ 10 μM (self-desensitizing) co-injected with cADPR 10 μM", "result": "massive decrease"}]}
{"molecule": "COc1nc2c(=N)n3cnc2n1C1OC(COP(=O)(O)OP(=O)(O)OCC2OC3C(O)C2O)C(O)C1O", "note": "(stereo not drawn) [8-OCH3-cADPR]", "values": [{"measurement": "effect on NAADP^+-mediated Ca^2+-signaling", "setting": "[6]; 8-OCH3-cADPR 100 μM co-injected with NAADP^+ 50 nM", "result": "did not significantly affect"}]}
{"molecule": "OC1C(O)C(OP(O)(O)=S)C(OP(O)(O)=S)C(O)C1OP(O)(O)=S", "note": "(stereo not drawn) [Ins(1,4,6)PS3]", "values": [{"measurement": "decay of the initial Ca^2+ peak of NAADP^+-mediated signal", "setting": "[6]; [7]", "result": "faster decay"}, {"measurement": "effect on initial Ca^2+ peak of NAADP^+-mediated signal", "setting": "[6]; [7]", "result": "partial reduction"}]}
{"molecule": "nicotinamide-adenine dinucleotide phosphate [NADP^+]", "values": [{"measurement": "Ca^2+ signal after microinjection", "setting": "[4]; pipette concentration 50 nM", "result": "completely without effect"}]}
